# Measurements: patent US12679836B2, “4H-pyrrolo[3,2-c]pyridin-4-one compounds” (Bayer Aktiengesellschaft, priority 2019, dated 2026)
# What was measured:
# Ba/F3-EGFR-WT cells = Ba/F3-EGFR-WT cells (Homo sapiens, UniProt P00533); assay: Ba/F3 cell survival assay (Cell Titer-Glo), WT EGFR; type: cell-based; conditions: without IL-3, with 10 ng/mL EGF, 48 h; read-out: BA/F3 (wild type) IC50
# Procedure: (§1) 293T cells from ATCC were transfected with pBABEpuro expression constructs for WT EGFR or EGFR-insSVD and pCL-Eco packaging vector using Fugene-6 transfection reagent from Promega. Plates were incubated at 37° C. for 48 h. Retrovirus was harvested by filtering the media supernatant through a 0.45 μm filter.
# (§2) Ba/F3 cells purchased from DSMZ were grown in RPMI+10% FBS+10 ng/mL IL-3 and infected with filtered retroviral supernatant at a 1:2 dilution. Polybrene was added to a concentration of 8 μg/mL, plates were spun for 90 min, and incubated overnight at 37° C. 2 μg/mL puromycin was added to the infected cells 24 h after infection and cells were continually grown in the presence of puromycin and 10 ng/mL IL-3. Following stably expressing Ba/F3 cell lines were generated: Ba/F3-EGFR-WT, Ba/F3-EGFR-insSVD, (Ba/F3-vector-control).
# (§3) For cell survival assays, Ba/F3 cells were grown to a density of 1-2 million cells per mL, spun down and resuspended in media without IL-3, and replated at a concentration 200,000-500,000 cells per mL. The cells ectopically expressing WT EGFR or EGFR-insSVD were plated with 10 ng/mL Millipore Culture grade EGF. The cells ectopically expressing pBABEpuro empty vector were plated with 10 ng/mL IL-3. 2 days later, cells were plated in 50 μL in a 384 well plate at a concentration of 4000 cells per well for cells assayed in the absence of IL-3 and 2000 cells per well for cells assayed in the presence of IL-3. 100 nL of compound was added to each well using a 100 nL pin head, and plates were incubated at 37° C. for 48 h.
# (§4) Cell viability was measured by adding 20 μL of Cell Titer-Glo Luminescent Cell Viability Reagent diluted 1:3 in PBS. Plates were sealed with Perkin Elmer Top-Seal, inverted several times to mix, and immediately centrifuged at 1000 rpm for 2 min. Plates were incubated in low light conditions for 8-10 min and luminescence was measured.
# Ba/F3-EGFR-insSVD cells = Ba/F3-EGFR-insSVD cells (Homo sapiens, UniProt P00533, DUP768-770, cells depend on it); assay: Ba/F3 cell survival assay (Cell Titer-Glo), EGFR-insSVD; type: cell-based; conditions: without IL-3, with 10 ng/mL EGF, 48 h; read-out: BA/F3 (insSVD) IC50
# Procedure: as §1, §2, §3, §4
# [1] = molecular target: T1, EGFR with insertion of SVD between D770 and N771 (EGFR ins SVD) (Homo sapiens, UniProt P00533, DUP768-770); assay: Exon20-Mutant-EGFR(D770_N771insSVD) kinase assay (TR-FRET); type: biochemical; conditions: 2 mM ATP, several values per example where printed
# T1 construct: made in house; host or cells: Sf9 insect cells (baculovirus)
# Bub1 = molecular target: T2, Bub1 (Homo sapiens, UniProt O43683); assay: Bub1 TR-FRET high ATP kinase assay; type: biochemical; conditions: Bub1 high ATP (2 mM) IC50 [mol/l], 2 mM ATP
# T2 construct: catalytic domain of human Bub1 (amino acids 704-1085); His6 (N); made in house; host or cells: Hi5 insect cells
# Text: Bub1 High ATP Kinase Assay
# Bub1-inhibitory activity of compounds of the present invention at a high ATP concentration was quantified employing the Bub1 TR-FRET high ATP kinase assay as described in the following paragraphs.
# N-terminally His6-tagged recombinant catalytic domain of human Bub1 (amino acids 704-1085), expressed in insect cells (Hi5) and purified by Ni-NTA affinity chromatography and subsequent size exclusion chromatography, was used as enzyme. As substrate for the kinase reaction the biotinylated peptide biotin-Ahx-[…]—SEQ ID 7 (C-terminus in amid form) was used which can be purchased e.g. form the company Biosyntan (Berlin, Germany).
# T2 sequence (O43683 704-1085): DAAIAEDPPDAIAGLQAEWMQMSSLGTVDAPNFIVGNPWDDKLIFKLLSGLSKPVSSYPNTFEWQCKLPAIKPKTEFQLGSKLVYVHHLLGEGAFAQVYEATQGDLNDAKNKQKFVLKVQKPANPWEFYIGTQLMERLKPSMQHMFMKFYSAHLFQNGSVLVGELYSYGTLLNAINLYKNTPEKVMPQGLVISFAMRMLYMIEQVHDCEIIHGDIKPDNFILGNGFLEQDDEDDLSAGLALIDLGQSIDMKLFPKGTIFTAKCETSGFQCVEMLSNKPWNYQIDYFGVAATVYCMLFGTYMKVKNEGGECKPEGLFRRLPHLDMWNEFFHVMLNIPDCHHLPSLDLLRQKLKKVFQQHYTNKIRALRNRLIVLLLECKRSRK
# Sequence of Ba/F3-EGFR-insSVD cells (P00533 with tags, fused parts or gaps DUP768-770): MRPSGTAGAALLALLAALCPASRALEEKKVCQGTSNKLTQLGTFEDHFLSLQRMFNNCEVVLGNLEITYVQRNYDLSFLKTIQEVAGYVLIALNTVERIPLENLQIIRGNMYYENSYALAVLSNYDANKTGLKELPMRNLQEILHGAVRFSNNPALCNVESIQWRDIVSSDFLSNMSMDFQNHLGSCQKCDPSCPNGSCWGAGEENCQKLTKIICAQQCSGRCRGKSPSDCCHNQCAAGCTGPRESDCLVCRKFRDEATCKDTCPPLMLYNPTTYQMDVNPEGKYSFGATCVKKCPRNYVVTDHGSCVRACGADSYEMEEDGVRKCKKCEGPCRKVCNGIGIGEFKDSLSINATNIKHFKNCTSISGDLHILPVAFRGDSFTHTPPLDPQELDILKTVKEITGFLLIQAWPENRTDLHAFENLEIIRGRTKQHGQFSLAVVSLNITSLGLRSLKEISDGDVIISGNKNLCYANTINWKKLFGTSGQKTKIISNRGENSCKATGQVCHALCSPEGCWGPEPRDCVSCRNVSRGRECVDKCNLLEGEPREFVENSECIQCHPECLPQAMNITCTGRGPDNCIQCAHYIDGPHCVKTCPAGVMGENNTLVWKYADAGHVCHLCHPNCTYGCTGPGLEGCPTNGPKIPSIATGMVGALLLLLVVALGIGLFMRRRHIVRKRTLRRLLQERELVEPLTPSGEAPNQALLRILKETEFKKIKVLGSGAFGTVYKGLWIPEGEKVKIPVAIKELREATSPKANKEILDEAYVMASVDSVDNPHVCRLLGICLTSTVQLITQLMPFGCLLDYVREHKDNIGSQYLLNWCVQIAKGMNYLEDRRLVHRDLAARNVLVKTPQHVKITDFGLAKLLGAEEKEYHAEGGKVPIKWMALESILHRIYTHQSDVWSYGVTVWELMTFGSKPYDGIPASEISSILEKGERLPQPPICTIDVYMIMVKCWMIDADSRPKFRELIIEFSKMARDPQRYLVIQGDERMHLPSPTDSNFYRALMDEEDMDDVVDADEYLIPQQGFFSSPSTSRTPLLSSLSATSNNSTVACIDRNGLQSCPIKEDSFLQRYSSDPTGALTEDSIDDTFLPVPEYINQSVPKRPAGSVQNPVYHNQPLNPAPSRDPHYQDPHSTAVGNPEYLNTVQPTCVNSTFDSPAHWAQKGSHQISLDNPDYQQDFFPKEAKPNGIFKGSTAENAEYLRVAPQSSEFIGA
# Sequence of Ba/F3-EGFR-WT cells (P00533 whole entry, stated change not applied): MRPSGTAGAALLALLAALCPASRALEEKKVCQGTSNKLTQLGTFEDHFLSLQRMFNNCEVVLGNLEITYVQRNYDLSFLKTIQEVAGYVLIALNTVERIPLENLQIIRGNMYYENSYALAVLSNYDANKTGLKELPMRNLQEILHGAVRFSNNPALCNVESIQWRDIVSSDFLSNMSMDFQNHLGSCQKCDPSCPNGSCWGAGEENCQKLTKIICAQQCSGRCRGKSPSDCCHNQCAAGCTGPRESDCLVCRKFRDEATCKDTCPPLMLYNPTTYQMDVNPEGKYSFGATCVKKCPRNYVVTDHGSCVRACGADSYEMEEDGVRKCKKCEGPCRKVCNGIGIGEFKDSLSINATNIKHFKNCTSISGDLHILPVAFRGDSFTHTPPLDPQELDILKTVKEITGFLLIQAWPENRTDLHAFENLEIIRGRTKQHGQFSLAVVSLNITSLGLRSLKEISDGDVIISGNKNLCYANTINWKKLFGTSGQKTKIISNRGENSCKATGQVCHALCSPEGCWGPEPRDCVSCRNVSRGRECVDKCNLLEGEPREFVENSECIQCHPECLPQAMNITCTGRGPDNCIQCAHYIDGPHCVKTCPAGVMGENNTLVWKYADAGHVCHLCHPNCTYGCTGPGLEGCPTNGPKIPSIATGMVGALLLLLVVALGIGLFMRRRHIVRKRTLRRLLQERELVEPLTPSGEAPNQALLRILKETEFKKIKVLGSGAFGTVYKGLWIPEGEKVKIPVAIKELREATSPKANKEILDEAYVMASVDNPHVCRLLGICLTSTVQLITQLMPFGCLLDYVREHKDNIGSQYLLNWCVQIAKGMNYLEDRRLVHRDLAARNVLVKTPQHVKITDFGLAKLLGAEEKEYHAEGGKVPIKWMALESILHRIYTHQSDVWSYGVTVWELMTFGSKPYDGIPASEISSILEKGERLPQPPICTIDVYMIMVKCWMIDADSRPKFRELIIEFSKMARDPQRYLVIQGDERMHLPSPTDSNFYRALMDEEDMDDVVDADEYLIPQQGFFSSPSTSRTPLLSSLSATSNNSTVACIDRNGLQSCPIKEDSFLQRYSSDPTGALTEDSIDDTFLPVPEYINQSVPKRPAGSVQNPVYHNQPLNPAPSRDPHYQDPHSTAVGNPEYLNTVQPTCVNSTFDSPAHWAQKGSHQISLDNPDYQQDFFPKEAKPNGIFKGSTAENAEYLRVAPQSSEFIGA
# T1 sequence (P00533 with tags, fused parts or gaps DUP768-770): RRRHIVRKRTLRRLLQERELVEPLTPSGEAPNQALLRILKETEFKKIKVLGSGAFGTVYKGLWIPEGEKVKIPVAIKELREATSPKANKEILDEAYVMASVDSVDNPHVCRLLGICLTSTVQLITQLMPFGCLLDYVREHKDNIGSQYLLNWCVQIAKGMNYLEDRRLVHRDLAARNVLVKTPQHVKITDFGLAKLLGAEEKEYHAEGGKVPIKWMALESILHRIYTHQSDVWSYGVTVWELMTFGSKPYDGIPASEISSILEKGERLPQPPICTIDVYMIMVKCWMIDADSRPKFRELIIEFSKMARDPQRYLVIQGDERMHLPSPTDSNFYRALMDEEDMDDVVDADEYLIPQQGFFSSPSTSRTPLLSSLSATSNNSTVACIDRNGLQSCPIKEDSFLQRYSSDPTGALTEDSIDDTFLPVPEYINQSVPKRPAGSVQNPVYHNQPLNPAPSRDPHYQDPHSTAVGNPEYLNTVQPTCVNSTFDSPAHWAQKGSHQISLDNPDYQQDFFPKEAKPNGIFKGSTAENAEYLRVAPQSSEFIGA
mutEGFR (D770_N771insSVD) kinase assay IC50 [1],IC50 (Bub1),SMILES,GI50 (Ba/F3-EGFR-WT cells),GI50 (Ba/F3-EGFR-insSVD cells)
0.233 nM,> 20000 nM,"CCc1c(F)cccc1Nc1c(-c2ccncc2OCC2COC(C)(C)CO2)[nH]c2c1C(=O)NCC2 (single isomer, unassigned) [Example 69, 2-(3-{[5,5-dimethyl-1,4-dioxan-2-yl]methoxy}pyridin-4-yl)-3-(2-ethyl-3-fluoroanilino)-1,5,6,7-tetrahydro-4H-pyrrolo[3,2-c]pyridin-4-one]",312 nM,7.17 nM
0.153 nM,> 20000 nM,"COc1c(F)cccc1Nc1c(-c2ccncc2OC[C@@H]2CN(CC(F)F)CCO2)[nH]c2c1C(=O)NCC2 [Example 22, 2-(3-{[(2S)-4-(2,2-difluoroethyl)morpholin-2-yl]methoxy}pyridin-4-yl)-3-(3-fluoro-2-methoxyanilino)-1,5,6,7-tetrahydro-4H-pyrrolo[3,2-c]pyridin-4-one]",544 nM,41.9 nM
0.0891 nM,4230 nM,"O=C1NCCc2[nH]c(-c3ccncc3OCC3COCCO3)c(Nc3cccc(Cl)c3Cl)c21 (single isomer, unassigned) [Example 9, 3-(2,3-Dichloroanilino)-2-{3-[(1,4-dioxan-2-yl)methoxy]pyridin-4-yl}-1,5,6,7-tetrahydro-4H-pyrrolo[3,2-c]pyridin-4-one]",303 nM,32.7 nM
0.137 nM,3330 nM,"COc1c(Cl)cccc1Nc1c(-c2ccncc2OC[C@H]2COCCO2)[nH]c2c1C(=O)NCC2 (single isomer, unassigned) [Example 3]",755 nM,22.8 nM
0.257 nM,7590 nM,"CCc1c(Cl)cccc1Nc1c(-c2ccncc2OC[C@H]2CN(C)CCO2)[nH]c2c1C(=O)NCC2 [Example 55, 3-(3-chloro-2-ethylanilino)-2-(3-{[(2R)-4-methylmorpholin-2-yl]methoxy}pyridin-4-yl)-1,5,6,7-tetrahydro-4H-pyrrolo[3,2-c]pyridin-4-one]",1310 nM,124 nM
0.159 nM,3360 nM,"COc1c(Cl)cccc1Nc1c(-c2ccncc2OCC2COCCO2)[nH]c2c1C(=O)NCC2 (stereo not drawn) [Example 1, 3-(3-chloro-2-methoxyanilino)-2-{3-[(1,4-dioxan-2-yl)methoxy]pyridin-4-yl}-1,5,6,7-tetrahydro-4H-pyrrolo[3,2-c]pyridin-4-one]",366 nM,9.8 nM
0.115 nM,8620 nM,"O=C1NCCc2[nH]c(-c3ccncc3OCC3COCCO3)c(Nc3cccc(F)c3CC(F)F)c21 (stereo not drawn) [Example 40, 3-[2-(2,2-difluoroethyl)-3-fluoro-anilino]-2-[3-(1,4-dioxan-2-ylmethoxy)-4-pyridyl]-1,5,6,7-tetrahydropyrrolo[3,2-c]pyridin-4-one]",867 nM,119 nM
0.426 nM,1360 nM,"CCc1c(Cl)cccc1Nc1c(-c2ccncc2OC[C@@H]2COCCO2)[nH]c2c1C(=O)NCC2 (single isomer, unassigned) [Example 53]",408 nM,21.3 nM
,13900 nM,"COc1c(Cl)cccc1Nc1c(-c2ccncc2O[C@@H](C)C2COCCO2)[nH]c2c1C(=O)NCC2 (single isomer, unassigned) [Example 58, 3-(3-chloro-2-methoxyanilino)-2-{3-[(1 S)-1-(1,4-dioxan-2-yl)ethoxy]pyridin-4-yl}-1,5,6,7-tetrahydro-4H-pyrrolo[3,2-c]pyridin-4-one]",519 nM,29.8 nM
0.304 nM,> 20000 nM,"Cc1c(F)cccc1Nc1c(-c2ccncc2OCC2COC(C)(C)CO2)[nH]c2c1C(=O)NCC2 (single isomer, unassigned) [Example 39, 2-[3-[(5,5-dimethyl-1,4-dioxan-2-yl)methoxy]-4-pyridyl]-3-(3-fluoro-2-methyl-anilino)-1,5,6,7-tetrahydropyrrolo[3,2-c]pyridin-4-one]",630 nM,44 nM
,> 20000 nM,"COc1c(Cl)cccc1Nc1c(-c2ccncc2OCC2COC(C)(C)CO2)[nH]c2c1C(=O)NCC2 (stereo not drawn) [Example 30, 3-(3-chloro-2-methoxyanilino)-2-{3-[(5,5-dimethyl-1,4-dioxan-2-yl)methoxy]pyridin-4-yl}-1,5,6,7-tetrahydro-4H-pyrrolo[3,2-c]pyridin-4-one]",407 nM,19.3 nM
0.935 nM,,"COc1c(Cl)cccc1Nc1c(-c2ccncc2O[C@H](C)C2COCCO2)[nH]c2c1C(=O)NCC2 (single isomer, unassigned) [Example 61]",3770 nM,300 nM
0.133 nM,,"COc1c(Cl)cccc1Nc1c(-c2ccncc2OCC2COC(C)(C)CO2)[nH]c2c1C(=O)NCC2 (single isomer, unassigned) [Example 31, 3-(3-chloro-2-methoxyanilino)-2-{3-[(5,5-dimethyl-1,4-dioxan-2-yl)methoxy]pyridin-4-yl}-1,5,6,7-tetrahydro-4H-pyrrolo[3,2-c]pyridin-4-one]",,
0.492 nM,> 5710 nM,"Cc1c(Cl)cccc1Nc1c(-c2ccncc2OCC2COC(C)(C)CO2)[nH]c2c1C(=O)NCC2 (single isomer, unassigned) [Example 45, 3-(3-chloro-2-methyl-anilino)-2-[3-[(5,5-dimethyl-1,4-dioxan-2-yl)methoxy]-4-pyridyl]-1,5,6,7-tetrahydropyrrolo[3,2-c]pyridin-4-one]",1640 nM,
,5010 nM,"Cc1c(F)cccc1Nc1c(-c2ccncc2OCC2COCCO2)[nH]c2c1C(=O)NCC2 (stereo not drawn) [Example 47, 2-[3-(1,4-dioxan-2-ylmethoxy)-4-pyridyl]-3-(3-fluoro-2-methyl-anilino)-1,5,6,7-tetrahydropyrrolo[3,2-c]pyridin-4-one]",715 nM,41.6 nM
,2820 nM,"COc1c(F)cccc1Nc1c(-c2ccncc2OCCC2COCCO2)[nH]c2c1C(=O)NCC2 (single isomer, unassigned) [Example 36, 2-(3-{2-[1,4-dioxan-2-yl]ethoxy}pyridin-4-yl)-3-(3-fluoro-2-methoxyanilino)-1,5,6,7-tetrahydro-4H-pyrrolo[3,2-c]pyridin-4-one]",845 nM,68.1 nM
0.139 nM,> 20000 nM,"COc1c(F)cccc1Nc1c(-c2ccncc2OCC2CN(C)CCO2)[nH]c2c1C(=O)NCC2 (single isomer, unassigned) [Example 13, 3-(3-fluoro-2-methoxyanilino)-2-{3-[(4-methylmorpholin-2-yl)methoxy]pyridin-4-yl}-1,5,6,7-tetrahydro-4H-pyrrolo[3,2-c]pyridin-4-one]",1520 nM,
0.15 nM,,"Cc1c(Cl)cccc1Nc1c(-c2ccncc2OCC2COC(C)(C)CO2)[nH]c2c1C(=O)NCC2 (stereo not drawn) [Example 44, 3-(3-chloro-2-methyl-anilino)-2-[3-[(5,5-dimethyl-1,4-dioxan-2-yl)methoxy]-4-pyridyl]-1,5,6,7-tetrahydropyrrolo[3,2-c]pyridin-4-one]",,25.7 nM
